In ChEMBL document CHEMBL4229568, “Discovery of natural flavonoids as activators of Nrf2-mediated defense system: Structure-activity relationship and inhibition of intracellular oxidative insults” (Bioorg Med Chem, 2018):
Active and inactive are the calls of the source. The calls are words filed in the database; no cut-off is given here.

Experiments:
[1] = target: T1, Nuclear factor erythroid 2-related factor 2 (Mus musculus) (UniProt Q60795); test: Activation of Nrf2 in mouse Heap1c1c7 cells assessed as induction of NAD(P)H:quinone reductase activity at 25 uM relative to control; assay type: cell-based
T1 sequence (whole entry): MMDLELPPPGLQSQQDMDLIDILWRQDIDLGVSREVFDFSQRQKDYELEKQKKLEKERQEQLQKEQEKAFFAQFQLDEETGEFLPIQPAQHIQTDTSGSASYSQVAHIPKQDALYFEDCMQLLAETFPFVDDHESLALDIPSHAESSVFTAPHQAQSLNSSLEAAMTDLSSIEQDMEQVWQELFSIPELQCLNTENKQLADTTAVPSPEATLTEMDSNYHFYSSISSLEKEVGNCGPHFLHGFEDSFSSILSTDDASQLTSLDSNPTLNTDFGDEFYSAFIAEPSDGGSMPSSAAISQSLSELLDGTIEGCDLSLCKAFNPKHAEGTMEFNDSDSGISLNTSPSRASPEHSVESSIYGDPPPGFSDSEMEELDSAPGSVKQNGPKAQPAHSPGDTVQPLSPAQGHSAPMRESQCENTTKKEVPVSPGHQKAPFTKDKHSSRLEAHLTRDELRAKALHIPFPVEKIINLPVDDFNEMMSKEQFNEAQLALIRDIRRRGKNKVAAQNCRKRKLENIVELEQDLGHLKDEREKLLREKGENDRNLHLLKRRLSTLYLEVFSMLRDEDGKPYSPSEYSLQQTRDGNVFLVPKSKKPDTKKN

[2] = target: T2, Nuclear factor erythroid 2-related factor 2 (Homo sapiens) (UniProt Q16236); test: Activation of Nrf2 in human MDA-MB-231 cells assessed as upregulation of Nrf2 protein expression after 16 hrs by immunoblot analysis; assay type: cell-based
T2 sequence (whole entry): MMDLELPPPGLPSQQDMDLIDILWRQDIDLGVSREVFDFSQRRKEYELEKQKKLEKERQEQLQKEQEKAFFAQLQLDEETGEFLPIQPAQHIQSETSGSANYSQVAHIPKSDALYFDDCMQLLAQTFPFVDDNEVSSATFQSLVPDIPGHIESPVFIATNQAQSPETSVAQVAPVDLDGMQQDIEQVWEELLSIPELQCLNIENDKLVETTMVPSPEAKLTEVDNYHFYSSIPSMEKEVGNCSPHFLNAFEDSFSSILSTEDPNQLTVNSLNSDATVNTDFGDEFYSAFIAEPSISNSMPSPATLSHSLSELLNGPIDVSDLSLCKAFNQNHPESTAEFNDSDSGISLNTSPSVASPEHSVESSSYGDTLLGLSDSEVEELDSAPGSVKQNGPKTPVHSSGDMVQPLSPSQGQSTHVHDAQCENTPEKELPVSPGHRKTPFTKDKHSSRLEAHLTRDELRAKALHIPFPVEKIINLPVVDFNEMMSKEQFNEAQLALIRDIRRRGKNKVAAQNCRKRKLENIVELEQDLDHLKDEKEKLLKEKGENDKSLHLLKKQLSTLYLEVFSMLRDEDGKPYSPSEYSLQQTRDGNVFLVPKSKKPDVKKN

[3] = target: T2, Nuclear factor erythroid 2-related factor 2 (Homo sapiens); test: Activation of Nrf2 in human MDA-MB-231 cells assessed as upregulation of NQO1 protein expression after 16 hrs by immunoblot analysis; assay type: cell-based
[4] = target: T2, Nuclear factor erythroid 2-related factor 2 (Homo sapiens); test: Activation of Nrf2 in human BEAS2B cells assessed as upregulation of NQO1 protein expression at 0.31 to 20 uM after 18 hrs by immunoblot analysis; assay type: cell-based
[5] = target: T2, Nuclear factor erythroid 2-related factor 2 (Homo sapiens); test: Activation of Nrf2 in human BEAS2B cells assessed as upregulation of gamma-GCS protein expression at 0.31 to 20 uM after 18 hrs by immunoblot analysis; assay type: cell-based
[6] = target: T2, Nuclear factor erythroid 2-related factor 2 (Homo sapiens); test: Activation of Nrf2 in human BEAS2B cells assessed as upregulation of NQO1 protein expression at 50 to 100 uM after 18 hrs by immunoblot analysis; assay type: cell-based
BEAS-2B = test: Effect on Keap1 protein levels in human BEAS2B cells at <= 20 uM after 18 hrs by immunoblot analysis; assay type: functional, cell-based
[7] = target: T2, Nuclear factor erythroid 2-related factor 2 (Homo sapiens); test: Activation of Nrf2 in human BEAS2B cells assessed as upregulation of NQO1 protein expression at 6.25 uM after 8 to 24 hrs by immunoblot analysis; assay type: cell-based
[8] = target: T2, Nuclear factor erythroid 2-related factor 2 (Homo sapiens); test: Activation of Nrf2 in human BEAS2B cells assessed as upregulation of NQO1 protein expression at 6.25 uM after 48 hrs by immunoblot analysis; assay type: cell-based
[9] = target: T2, Nuclear factor erythroid 2-related factor 2 (Homo sapiens); test: Activation of Nrf2 in human BEAS2B cells assessed as upregulation of gamma-GCS protein expression at 6.25 uM after 48 hrs by immunoblot analysis; assay type: cell-based
[10] = target: T2, Nuclear factor erythroid 2-related factor 2 (Homo sapiens); test: Activation of Nrf2 in human BEAS2B cells assessed as upregulation of gamma-GCS protein expression at 3.12 to 25 uM after 12 hrs by immunoblot analysis; assay type: cell-based
[11] = target: T2, Nuclear factor erythroid 2-related factor 2 (Homo sapiens); test: Induction of Nrf2 translocation from cytoplasm to nucleus in human BEAS2B cells at 6.25 uM after 18 hrs by immunoblot analysis; assay type: cell-based
[12] = target: T2, Nuclear factor erythroid 2-related factor 2 (Homo sapiens); test: Inhibition of Nrf2 (unknown origin) ubiquitylation transfected in human BEAS2B cells at 6.25 uM after 6 hrs by immunoblot analysis; assay type: cell-based
[13] = target: T1, Nuclear factor erythroid 2-related factor 2 (Mus musculus); test: Activation of Nrf2 in mouse Heap1c1c7 cells assessed as induction of NAD(P)H:quinone reductase activity at 6.25 uM pretreated for 1 hr followed by co-treatment with PKC inhibitor Ro-31-8220 for 24 hrs; assay type: cell-based
[14] = target: T2, Nuclear factor erythroid 2-related factor 2 (Homo sapiens); test: Activation of Nrf2 in human BEAS2B cells assessed as upregulation of Nrf2 protein expression at 6.25 uM pretreated for 1 hr followed by co-treatment with p38 MAPK inhibitor SB203580 for 18 hrs by immunoblot analysis; assay type: cell-based
[15] = target: T2, Nuclear factor erythroid 2-related factor 2 (Homo sapiens); test: Activation of Nrf2 in human BEAS2B cells assessed as upregulation of Nrf2 protein expression at 6.25 uM pretreated for 1 hr followed by co-treatment with PKC inhibitor Go6983 for 18 hrs by immunoblot analysis; assay type: cell-based
[16] = target: T2, Nuclear factor erythroid 2-related factor 2 (Homo sapiens); test: Activation of Nrf2 in human BEAS2B cells assessed as upregulation of NQO1 protein expression at 6.25 uM pretreated for 1 hr followed by co-treatment with MEK1/2 inhibitor PD98059 for 18 hrs by immunoblot analysis; assay type: cell-based
[17] = target: T2, Nuclear factor erythroid 2-related factor 2 (Homo sapiens); test: Activation of Nrf2 in human BEAS2B cells assessed as upregulation of NQO1 protein expression at 6.25 uM pretreated for 1 hr followed by co-treatment with PKC inhibitor Ro-31-8220 for 18 hrs by immunoblot analysis; assay type: cell-based
[18] = target: T2, Nuclear factor erythroid 2-related factor 2 (Homo sapiens); test: Activation of Nrf2 in human BEAS2B cells assessed as upregulation of NQO1 protein expression at 6.25 uM pretreated for 1 hr followed by co-treatment with PKC inhibitor Go6983 for 18 hrs by immunoblot analysis; assay type: cell-based
[19] = target: T2, Nuclear factor erythroid 2-related factor 2 (Homo sapiens); test: Activation of Nrf2 in human BEAS2B cells assessed as upregulation of GSH levels at 5 uM measured over 1 to 24 hrs; assay type: cell-based
[20] = target: T2, Nuclear factor erythroid 2-related factor 2 (Homo sapiens); test: Activation of Nrf2 in human BEAS2B cells assessed as upregulation of GSH levels after 24 hrs; assay type: cell-based
[21] = target: T2, Nuclear factor erythroid 2-related factor 2 (Homo sapiens); test: Activation of Nrf2 in human BEAS2B cells assessed as suppression of As(+3)-induced overproduction of reactive oxygen species at 6.25 uM pretreated for 8 hrs followed by As(+3) challenge and measured after 10 hrs; assay type: cell-based

- fold change (FC) [1]: 2.08
- Activity [2]: Dose-dependent effect
- Activity [3]: Dose-dependent effect
- Activity [4]: Dose-dependent effect
- Activity [5]: Dose-dependent effect
- Activity [6]: inactive
- Activity [7]: Active
- Activity [8]: inactive
- Activity [9]: inactive
- Activity [10]: Active
- Activity [11]: Active
- inhibition [12]: Active
- Activity [13]: inactive
- Activity [14]: inactive
- Activity [15]: inactive
- Activity [16]: inactive
- Activity [17]: inactive
- Activity [18]: inactive
- Activity [19]: Active
- Activity [20]: Dose-dependent effect
- Activity [21]: Active
SMILES: COc1ccc(-c2coc3cc(OC)cc(O)c3c2=O)cc1 [4',7-DIMETHOXY-5-HYDROXYGENISTEIN]
- Activity (BEAS-2B): inactive
